Source: patent publication US10093673B2, “Tetracyclic pyridone compounds as antivirals” (Novartis AG, priority 2016, dated 2018)
In brackets after ≈: the same amount, converted by molar mass.

Experiments:
HBsAg secretion = assay: HBsAg assay (ELISA of secreted HBsAg, HepG2-Clone42 cells); format: cell-based, HBV; settings: Hepatitis B virus, read-out: HBsAg EC50, HepG2-Clone42 cells, HBsAg secretion reduced 50% vs DMSO control
Procedure: HepG2-Clone42, a Tet-inducible HBV-expressing cell line with a stably integrated 1.3mer copy of the HBV ayw strain, was generated based on the Tet-inducible HepAD38 cell line with slight modifications. Ladner S K, et al., Antimicrobial Agents and Chemotherapy. 41(8):1715-1720 (1997). HepG2-Clone42 cells were cultured in DMEM/F-12+Glutamax™ (Life Technologies, Carlsbad, Calif., USA), supplemented with 10% fetal bovine serum (Life Technologies), G-418 (Corning, Manassas, Va., USA) at a final concentration of 0.5 mg/mL, and 5 μg/mL Doxycycline (Sigma, St. Louis, Mo., USA) and maintained in 5% CO2 at 37° C.
HepG2-Clone42 cells were seeded in into black clear-bottom 96-well plates at a concentration of 6.0×10^4 cells/well. 24 hours post-seeding, the cells were treated with 200 μl/well of media containing five-fold serial dilutions of compounds in DMSO. DMSO alone was used as the no drug control. The final DMSO concentration in all wells was 0.5%.
The HBsAg ELISA kit (Alpha Diagnostic International, San Antonio, Tex., USE, Catalog #4110) was used to determine the level (semi-quantitative) of secreted HBV sAg.
The HBSAg ELISA assay was performed following the manufacturer's protocol as described.
Step 1. Pipet 100 μL each of compound or DMSO treated samples into HBsAg ELISA plates. Seal plates and incubate at room temp for 60 minutes.
Step 2. Aspirate samples and wash three times with Wash Buffer. Dispense 100μ of antibody-HRP conjugate to each well. Incubate at room temp for 30 minutes.
Step 3. Aspirate samples and wash three times with Wash Buffer. Add 100 μL of TMB Substrate to all wells and incubate 15 minutes at room temp.
Step 4. Dispense 100 μL of Stop Solution to each well. Measure absorbance of ELISA plate at 450 nm.
EC50 values were determined as follows: • 1. Determine the percent of HBsAg secretion inhibition. Calculate the percent inhibition on of HBsAg secretion inhibition using the following equation: 100×(XC−MB)/(MD−MB) • where XC is the absorbance signal from compound-treated well; MB is average absorbance signal (background signal) for column 12 (no cells+HBsAg ELISA sample buffer) and MD is average absorbance signal from DMSO-treated wells. Then calculate EC50 values by non-linear regression using a four parameter curve logistic equation. The curve fit model employed is XLFit Dose Response One Site Model 204: y=(A+((B−A)/(1+(10^((C−x)*D))))) where A is the minimum y value, B is the maximum y value, C is the log EC50 value, and D is the slope factor. High Throughput Solubility Measurement • 1. Transfer 20 ul of 10 mM DMSO stock solution into a 96 deep well plate labeled as […] and 5 ul to another plate labeled as compound standard plate. • 2. Place the buffer plate in a Multi-Tainer MT-4 container (FTS Systems). Freeze dry overnight to remove DMSO. • 3. Add 100 ul of Cl-free PBS (pH 6.8) to the dried compound in the buffer plate and 95 ul of DMSO to the standard plate. • 4. The buffer plate is be sonicated in a water bath for 10 min. • 5. The two plates are then placed onto the VWR orbital shaker to equilibrate for 24 hours at room temperature. • 6. The buffer plate is centrifuged at 4000 rpm for 30 min. • 7. Transfer 10 ul aliquots of supernatant from the buffer plate to a sample plate and dilute 5 fold. • 8. Inject both compound standard and sample into the UPLC/UV/CLND/MS to generate multi detector qualitative and quantitive analytical data. • 9. Data was processed with Xcalibur. CLND equimolar response was used for measuring compound concentration of DMSO solution. UV270 nm or MS relative ratio was used for solubility determination.

[1] = Pharmacokinetics in mice (iv and PO); format: in vivo; settings: for Cmax / Tmax / AUC / clearance / bioavailability / Vd: mouse, in vivo; for bioavailability: read-out: Oral BA (% F); for Vd: read-out: Vss
[2] = Pharmacokinetics in rat (iv and PO); format: in vivo; settings: for Cmax / Tmax / AUC / clearance / bioavailability / Vd: in vivo; for bioavailability: read-out: Oral BA (% F); for Vd: read-out: Vss
[3] = Pharmacokinetics in dog (iv and PO); format: in vivo; settings: for Cmax / Tmax / AUC / clearance / bioavailability / Vd: in vivo; for bioavailability: read-out: Oral BA (% F); for Vd: read-out: Vss
[4] = High throughput solubility measurement in PBS; format: physicochemical; settings: Cl-free PBS, aqueous buffer, thermodynamic from solid; PBS (phosphate-buffered saline), pH 6.8, 24 hours at room temperature
Source text: The following table provides data for solubility of compounds of the invention in PBS (phosphate-buffered saline), using a standard solubility screening method.

Nav1.5 = Nav1.5 (Homo sapiens (Human), UniProt Q14524); assay: Inhibition of cardiac sodium ion channel Nav1.5; format: biochemical

| SMILES | EC50 (HBsAg secretion) [nM] | T1/2term. [1] [h] | Cmax ([1]; PO 2.0 mg/kg) [nM] | Tmax ([1]; PO 2.0 mg/kg) [h] | AUC ([1]; PO 2.0 mg/kg, read-out: AUC PO) [µM·h] | clearance ([1]; iv 1.0 mg/kg) [mL/min/kg] | bioavailability ([1]; iv 1.0 mg/kg, PO 2.0 mg/kg) [%] | AUC ([1]; iv 1.0 mg/kg, read-out: AUC iv) [µM·h] | Vd ([1]; iv 1.0 mg/kg) [L/kg] | T1/2term. [2] [h] | Cmax ([2]; PO 2.0 mg/kg) [nM] | Tmax ([2]; PO 2.0 mg/kg) [h] | AUC ([2]; PO 2.0 mg/kg, read-out: AUC PO) [µM·h] | clearance ([2]; iv 1.0 mg/kg) [mL/min/kg] | bioavailability ([2]; iv 1.0 mg/kg, PO 2.0 mg/kg) [%] | AUC ([2]; iv 1.0 mg/kg, read-out: AUC iv) [µM·h] | Vd ([2]; iv 1.0 mg/kg) [L/kg] | T1/2term. [3] [h] | Cmax ([3]; PO 1.0 mg/kg) [nM] | Tmax ([3]; PO 1.0 mg/kg) [h] | other results |
| --- | --- | --- | --- | --- | --- | --- | --- | --- | --- | --- | --- | --- | --- | --- | --- | --- | --- | --- | --- | --- | --- |
| COCCCOc1cc2c(cc1OC)-c1cc(=O)c(C(=O)O)cn1[C@H]1[C@@H]2OCC1(C)C [Compound 4.1, (3aR,12bR)-10-methoxy-11-(3-methoxypropoxy)-3,3-dimethyl-7-oxo-3,3a,7,12b-tetrahydro-2H-furo[3,2-c]pyrido[2,1-a]isoquinoline-6-carboxylic acid] | 0.3 | 1.8 | 1900 | 1 | 7.2 | 12.7 | 100 | 2.9 | 1.5 | 1.2 | 2600 | 2 | 10.2 | 4.9 | 65 | 8 | 0.75 | 12.3 | 3300 | 0.8 | AUC ([3]; PO 1.0 mg/kg, read-out: AUC PO): 12.8 µM·h; clearance ([3]; iv 0.5 mg/kg): 2.7 mL/min/kg; bioavailability ([3]; iv 0.5 mg/kg, PO 1.0 mg/kg): 94%; AUC ([3]; iv 0.5 mg/kg, read-out: AUC iv): 6.2 µM·h; Vd ([3]; iv 0.5 mg/kg): 1.7 L/kg; solubility at 24 h [4]: 1600 µM (≈ 687 µg/mL); EC50 (Nav1.5): > 500000 nM |
| COCCCOc1cc2c(cc1OC)-c1c(F)c(=O)c(C(=O)O)cn1[C@H]1[C@@H]2CCC1(C)C [Compound 3.1, (3aS,12bR)-8-fluoro-10-methoxy-11-(3-methoxypropoxy)-3,3-dimethyl-7-oxo-1,2,3,3a,7,12b-hexahydrocyclopenta[c]pyrido[2,1-a]isoquinoline-6-carboxylic acid] | 0.3 | 3.8 | 3000 | 0.5 | 9.5 | 6.9 | 87 | 5.5 | 1 | 9.2 | 6500 | 0.5 | 19.6 | 2.1 | 57 | 16.6 | 0.6 | 7.2 | 6200 | 1.5 | AUC ([3]; PO 1.0 mg/kg, read-out: AUC PO): 26.7 µM·h; clearance ([3]; iv 0.5 mg/kg): 1.3 mL/min/kg; bioavailability ([3]; iv 0.5 mg/kg, PO 1.0 mg/kg): 96%; AUC ([3]; iv 0.5 mg/kg, read-out: AUC iv): 13.3 µM·h; Vd ([3]; iv 0.5 mg/kg): 0.6 L/kg; solubility at 24 h [4]: 1600 µM (≈ 713 µg/mL) |
| COCCCOc1cc2c(cc1OC)-c1cc(=O)c(C(=O)O)cn1[C@H]1[C@@H]2CCC1(C)C [Compound 1.1, (3aS,12bR)-10-methoxy-11-(3-methoxypropoxy)-3,3-dimethyl-7-oxo-1,2,3,3a,7,12b-hexahydrocyclopenta[c]pyrido[2,1-a]isoquinoline-6-carboxylic acid] | 0.1 | 1.6 | 570 | 0.5 | 1.7 | 24.6 | 59 | 1.5 | 3.6 | 2.4 | 1720 | 1.33 | 4.5 | 15.3 | 97 | 2.5 | 1.3 | 5.9 | 1900 | 0.22 | AUC ([3]; PO 1.0 mg/kg, read-out: AUC PO): 5.7 µM·h; clearance ([3]; iv 0.5 mg/kg): 6.4 mL/min/kg; bioavailability ([3]; iv 0.5 mg/kg, PO 1.0 mg/kg): 93%; AUC ([3]; iv 0.5 mg/kg, read-out: AUC iv): 3.1 µM·h; Vd ([3]; iv 0.5 mg/kg): 1.7 L/kg; solubility at 24 h [4]: 2400 µM (≈ 1030 µg/mL) |
